Experimental data as given in patent US6960683B2, “Salt forms of poorly soluble probucol esters and ethers” (Atherogenics, Inc., priority 2002, dated 2005).
Counter-ions that a name gives are not always drawn. Like-named read-outs stand apart in the source and are kept apart here.

How the values were obtained:
Solubility in water = assay type: physicochemical; settings: for solubility: water, 25 °C
VCAM-1 = test: In Vitro VCAM-1 Assay (ELISA of TNF-α-stimulated endothelial cells); assay type: cell-based, human; settings: HAEC or HPAEC cells stimulated with TNF-α (1 ng/ml), approx. 16 h, n = 3
Description: Cell Culture and compound dosing: Cultured primary human aortic (HAEC) or pulmonary (HPAEC) endothelial cells were obtained from Clonetics, Inc., and were used below passage 9. Cells were seeded in 96 well plates such that they would reach 90-95% confluency by the following day. On the following day the cells were stimulated with TNF-α (1 ng/ml) in the presence or absence of compounds dissolved in DMSO such that the final concentration of DMSO is 0.25% or less. To establish a dose curve for each compound, four concentrations in 2- to 5-fold increments were used. Cells were exposed to TNF-α and compounds for approximately 16 hours. The next day the cells were examined under microscope to score for visual signs of toxicity or cell stress.
Following 16 hr exposure to TNF-α and compound the media was discarded and the cells were washed once with Hanks Balanced Salt Solution (HBSS)/Phosphate buffered saline (PBS) (1:1). Primary antibodies against VCAM-1 (0.25 μg/ml in HBSS/PBS+5% FBS) were added and incubated for 30-60 minutes at 37° C. Cells were washed with HBSS/PBS three times, and secondary antibody Horse Radish Peroxidase (HRP)-conjugated goat anti-mouse IgG (1:500 in HBSS/PBS+5% FBS) were added and incubated for 30 minutes at 37° C. Cells were washed with HBSS/PBS four times and TMB substrate were added and incubated at room temperature in the dark until there was adequate development of blue color. The length of time of incubation was typically 5-15 minutes. 2N sulfuric acid was added to stop the color development and the data was collected by reading the absorbance on a BioRad ELISA plate reader at OD 450 nm. The results are expressed as IC50 values (the concentration (micromolar) of compound required to inhibit 50% of the maximal response of the control sample stimulated by TNF-α only). IC50's of the Examples and the free acid of the Examples are tabulated in VCAM-1 Table 1a.

[1] = free acid of the Example, ˜25° C., read-out: Solubility, Free acid (μg/ml) @ ˜25° C.
[2] = Homo sapiens, Endothelial cell, free acid of the Example, read-out: IC50 (μM) of the free acid (n = 3)
[3] = meglumine salt of the Example, ˜25° C., read-out: Solubility (μg/ml) @ ˜25° C.
[4] = meglumine salt, value given in the synthesis example, read-out: Solubility in water
[5] = Homo sapiens, Endothelial cell, meglumine salt of the Example, read-out: IC50 (μM) (n = 3)

| Compound | solubility (Solubility in water; [1]) | IC50 (VCAM-1; [2]) | Solubility, Free acid (μg/ml) @ ˜25° C. (Solubility in water; free acid of the Example, ˜25° C.) | IC50 (VCAM-1; free acid of the Example, read-out: IC50 (μM) of the free acid (n = 3)) | solubility (Solubility in water; [3]) | solubility (Solubility in water; [4]) | IC50 (VCAM-1; [5]) |
| --- | --- | --- | --- | --- | --- | --- | --- |
| CC(C)(Sc1cc(C(C)(C)C)c(O)c(C(C)(C)C)c1)Sc1cc(C(C)(C)C)c(OCCCC(=O)O)c(C(C)(C)C)c1 [Example 3 free acid, Butanoic acid, 4-[4-[[1-[[3,5-bis(1,1-dimethylethyl)4-hydroxyphenyl]thio]-1-methyl-ethyl]thio]-2,6-bis(1,1-dimethylethyl)phenoxy]-, reference compound] | < 5 µg/mL | 11 µM |  |  |  |  |  |
| CC(C)(Sc1cc(C(C)(C)C)c(O)c(C(C)(C)C)c1)Sc1cc(C(C)(C)C)c(OC(=O)CCC(=O)O)c(C(C)(C)C)c1 [Example 1 free acid, Butanedioic acid, mono [4-[[1-[[3,5-bis(1,1-dimethylethyl)-4-hydroxyphenyl]thio]-1-methylethyl]thio]-2,6-bis(1,1-dimethylethyl)phenyl]ester, reference compound] |  |  | <5 µg/mL | 7.7 µM |  |  |  |
| CC(C)(Sc1cc(C(C)(C)C)c(O)c(C(C)(C)C)c1)Sc1cc(C(C)(C)C)c(OC(=O)CCC(=O)O)c(C(C)(C)C)c1 [Example 1, Butanedioic Acid, Mono [4-[[1-[[3,5-bis(1,1-dimethylethyl)-4-hydroxyphenyl]thio]-1-methylethyl]thio]-2,6-bis(1,1-dimethylethyl)phenyl]Ester Meglumine Salt] |  |  |  |  | 390 µg/mL | 390 µg/mL | 13 µM |

Now from value to compound:

| solubility (Solubility in water; [1]) | IC50 (VCAM-1; [2]) | Solubility, Free acid (μg/ml) @ ˜25° C. (Solubility in water; free acid of the Example, ˜25° C.) | IC50 (VCAM-1; free acid of the Example, read-out: IC50 (μM) of the free acid (n = 3)) | solubility (Solubility in water; [3]) | solubility (Solubility in water; [4]) | IC50 (VCAM-1; [5]) | Compound |
| --- | --- | --- | --- | --- | --- | --- | --- |
| < 5 µg/mL | 10 µM |  |  |  |  |  | CC(C)(Sc1cc(C(C)(C)C)c(O)c(C(C)(C)C)c1)Sc1cc(C(C)(C)C)c(OCC(=O)O)c(C(C)(C)C)c1 [Example 2 free acid, Acetic acid, [4-[[1-[[3,5-bis(1,1-dimethylethyl)-4-hydroxyphenyl]thio]-1-methyl-ethyl]thio]-2,6-bis(1,1-dimethylethyl)phenoxy]-, reference compound] |
|  |  |  |  | 1010 µg/mL | 1010 µg/mL | 6.5 µM | CC(C)(Sc1cc(C(C)(C)C)c(O)c(C(C)(C)C)c1)Sc1cc(C(C)(C)C)c(OCC(=O)O)c(C(C)(C)C)c1 [Example 2, Acetic Acid, [4-[[1-[[3,5-bis(1,1-dimethylethyl)-4-hydroxyphenyl]thio]-1-methylethyl]thio]-2,6-bis(1,1-dimethylethyl)phenoxy]-, Meglumine Salt] |
|  |  |  |  | 1910 µg/mL | 1910 µg/mL | 12 µM | CC(C)(Sc1cc(C(C)(C)C)c(O)c(C(C)(C)C)c1)Sc1cc(C(C)(C)C)c(OCCCC(=O)O)c(C(C)(C)C)c1 [Example 3, Butanoic Acid, 4-[4-[[1-[[3,5-bis(1,1-dimethylethyl)4-hydroxyphenyl]thio]-1-methylethyl]-thio]-2,6-bis(1,1-dimethylethyl)phenoxy]-, Meglumine Salt] |
